In ChEMBL document CHEMBL4130624, “Optimization of 1,4-Oxazine β-Secretase 1 (BACE1) Inhibitors Toward a Clinical Candidate” (J Med Chem, 2018):
Calls of active or inactive are those of the source. No cut-off for these calls is given here.

Key:
Cytochrome P450 2C19 = Cytochrome P450 2C19 (Homo sapiens, UniProt P33261); assay: Reversible inhibition of recombinant human CYP2C19 by fluorescence-based assay; type: ADME
[1] = Oral bioavailability in Beagle dog at 10 mg/kg administered as bolus dose by LC-MS/MS analysis; type: ADME, organism-based, Canis lupus familiaris; details: in vivo
TK6 = assay: Genotoxicity in human TK6 cells at 188 ug/ml after 4 hrs in presence of rat liver S9 fraction by micronucleus assay; type: toxicity, cell-based; details: s9, 4 h
[2] = Volume of distribution at steady state in Sprague-Dawley rat at 2.5 mg/kg, iv administered as bolus dose by LC-MS/MS analysis; type: ADME, organism-based; details: in vivo, read-out: Vdss
[3] = Toxicity in male beagle dog at 20 to 250 mg/kg/day, po qd for 1 month; type: organism-based, Canis lupus familiaris; details: in vivo
Canis familiaris [4] = assay: Systemic clearance in Beagle dog at 1 mg/kg, iv administered as bolus dose by LC-MS/MS analysis relative to liver blood flow; type: ADME, organism-based, Canis lupus familiaris; details: in vivo
[5] = Tmax in Swiss mouse at 10 mg/kg, po administered as bolus dose by LC-MS/MS analysis; type: ADME, organism-based; details: in vivo
[6] = Ratio of drug level in lung to plasma of Sprague-Dawley rat at 10 mg/kg, po; type: ADME, organism-based
Canis familiaris [7] = assay: Toxicity in male beagle dog at 20 to 250 mg/kg/day, po qd for 1 month followed by 1 month recovery period; type: organism-based, Canis lupus familiaris; details: in vivo
Canis familiaris [8] = assay: Antialzheimer activity in po dosed Beagle dog assessed as reduction in CSF amyloid beta (1 to 42) levels measured after 49 hrs post dose by MesoScale electrochemiluminescence; details: Canis lupus familiaris
Salmonella typhimurium [9] = assay: Mutagenicity in Salmonella typhimurium TAmix up to 500 ug/ml in presence of rat liver S9 fraction by Ames 2 assay; type: toxicity, organism-based; details: salmonella enterica subsp. enterica serovar typhimurium
[10] = Clearance in Sprague-Dawley rat at 2.5 mg/kg, iv administered as bolus dose by LC-MS/MS analysis; type: ADME, organism-based; details: in vivo
[11] = AUC (0 to 24 hrs) in male Beagle dog at 70 mg/kg, po measured after 1 month repeated dosing by LC-MS/MS analysis; details: in vivo
[12] = AUC (0 to infinity) in Swiss mouse at 10 mg/kg, po administered as bolus dose by LC-MS/MS analysis; type: ADME, organism-based; parameters: dose 10 mg/kg, time infinity, route oral; details: in vivo
Beta-secretase 1 = Beta-secretase 1 (Homo sapiens, UniProt P56817); assay: Inhibition of BACE1 (1 to 454 residues) (unknown origin) using APP derived polypeptide harboring Lys-Met/Asn-Leu mutation as substrate by FRET assay
Chain of Beta-secretase 1 (P56817 whole entry, the tested form may be a part): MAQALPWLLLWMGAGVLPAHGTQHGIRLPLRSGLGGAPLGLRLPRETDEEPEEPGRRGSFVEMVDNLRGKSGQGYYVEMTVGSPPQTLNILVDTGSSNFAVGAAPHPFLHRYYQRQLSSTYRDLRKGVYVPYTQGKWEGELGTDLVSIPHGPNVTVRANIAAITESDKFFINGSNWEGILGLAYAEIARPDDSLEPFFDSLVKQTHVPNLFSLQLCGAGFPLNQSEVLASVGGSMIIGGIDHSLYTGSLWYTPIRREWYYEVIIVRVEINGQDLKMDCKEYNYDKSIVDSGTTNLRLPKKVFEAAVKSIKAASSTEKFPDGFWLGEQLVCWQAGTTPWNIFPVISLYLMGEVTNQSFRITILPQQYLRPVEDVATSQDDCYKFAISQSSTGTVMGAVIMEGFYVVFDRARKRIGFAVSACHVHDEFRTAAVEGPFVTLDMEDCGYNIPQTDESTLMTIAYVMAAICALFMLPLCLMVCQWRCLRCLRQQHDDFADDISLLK

[13] = Cmax in Beagle dog at 10 mg/kg, po administered as bolus dose by LC-MS/MS analysis; type: ADME, organism-based, Canis lupus familiaris; parameters: dose 10 mg/kg, route oral; details: in vivo
HepG2 = assay: Cytotoxicity against human HepG2 cells assessed as effect on cell health indicators after 72 hrs by automated fluorescence microscopy based high content screening based assay; type: ADME; details: hepg2, 72 h
[14] = target: Mu-type opioid receptor (Homo sapiens) (UniProt P35372); assay: Inhibition of recombinant human mu-type opioid receptor at 10 uM after 5 mins
Chain of Mu-type opioid receptor (Homo sapiens) (P35372 whole entry): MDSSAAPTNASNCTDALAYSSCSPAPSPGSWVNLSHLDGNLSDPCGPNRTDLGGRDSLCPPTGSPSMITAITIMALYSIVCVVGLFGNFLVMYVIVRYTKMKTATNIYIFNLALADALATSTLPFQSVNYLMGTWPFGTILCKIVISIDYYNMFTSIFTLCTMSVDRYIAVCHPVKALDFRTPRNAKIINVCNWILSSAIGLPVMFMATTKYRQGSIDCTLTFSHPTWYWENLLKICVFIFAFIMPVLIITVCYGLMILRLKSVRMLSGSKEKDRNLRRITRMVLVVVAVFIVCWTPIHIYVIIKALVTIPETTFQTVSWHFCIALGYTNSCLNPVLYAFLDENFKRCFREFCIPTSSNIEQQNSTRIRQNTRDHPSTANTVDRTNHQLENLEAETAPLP

THP-1 = assay: Induction of phospholipidosis in human THP1 cells at 21 uM after […] by ethidiumbromide-based fluorescence assay relative to control; type: cell-based; details: thp-1, 21 µM
Salmonella typhimurium [15] = assay: Mutagenicity in Salmonella typhimurium TAmix up to 500 ug/ml in absence of rat liver S9 fraction by Ames 2 assay; type: toxicity, organism-based; details: salmonella enterica subsp. enterica serovar typhimurium
[16] = Cmax in Sprague-Dawley rat at 10 mg/kg, po administered as bolus dose by LC-MS/MS analysis; type: ADME, organism-based; parameters: dose 10 mg/kg, route oral; details: in vivo
[17] = Half life in Sprague-Dawley rat at 2.5 mg/kg, iv administered as bolus dose by LC-MS/MS analysis; type: ADME, organism-based; details: in vivo
Rattus norvegicus [18] = assay: Toxicity in female Sprague-Dawley rat assessed as increase in formation of foamy macrophages in lungs at 75 mg/kg/day, po administered via gavage for 1 month; type: organism-based; details: in vivo
[19] = AUC (0 to infinity) in Sprague-Dawley rat at 10 mg/kg, po administered as bolus dose by LC-MS/MS analysis; type: ADME, organism-based; parameters: dose 10 mg/kg, route oral, time infinity; details: in vivo
[20] = Drug metabolism in mouse liver microsomes at 1 uM after 15 mins in presence of NADPH by HPLC-MS/MS analysis; type: ADME, microsome; details: read-out: Drug metabolism
Rattus norvegicus [21] = assay: Toxicity in Sprague-Dawley rat assessed as induction of pigmentation at 225 mg/kg/day, po administered via gavage for 1 month; type: organism-based; details: in vivo
[22] = AUC (0 to 24 hrs) in female Beagle dog at 70 mg/kg, po measured after 1 month repeated dosing by LC-MS/MS analysis; details: in vivo
Rattus norvegicus [23] = assay: Toxicity in Sprague-Dawley rat assessed as drug tolerability at 25 to 75 mg/kg/day, po measured after 1 month repeated dosing; type: organism-based; details: in vivo
[24] = AUC (0 to infinity) in Beagle dog at 10 mg/kg, po administered as bolus dose by LC-MS/MS analysis; type: ADME, organism-based, Canis lupus familiaris; parameters: dose 10 mg/kg, time infinity, route oral; details: in vivo
[25] = Fraction unbound in human plasma at 5 uM after 4.5 hrs by HPLC-MS/MS method based rapid equilibrium dialysis; type: ADME, cell-free
Canis familiaris [26] = assay: Toxicity in beagle dog assessed as induction of reduction in general activity at 70 to 250 mg/kg/day, po qd for 1 week; type: organism-based, Canis lupus familiaris; details: in vivo, 168 h
[27] = AUC (0 to 24 hrs) in male Sprague-Dawley rat at 75 mg/kg, po measured after 1 month repeated dosing by LC-MS/MS analysis; type: ADME, organism-based; parameters: time < 24 hr, dose 75 mg/kg, route oral; details: in vivo
Canis familiaris [28] = assay: Volume of distribution at steady state in Beagle dog at 1 mg/kg, iv administered as bolus dose by LC-MS/MS analysis; type: ADME, organism-based, Canis lupus familiaris; details: in vivo
Canis familiaris [29] = assay: Toxicity in beagle dog assessed as induction of ataxia at 70 to 250 mg/kg/day, po qd for 1 week; type: organism-based, Canis lupus familiaris; details: in vivo, 168 h
Canis familiaris [30] = assay: Toxicity in beagle dog assessed as induction of tremors at 70 to 250 mg/kg/day, po qd for 1 week; type: organism-based, Canis lupus familiaris; details: in vivo, 168 h
Canis familiaris [31] = assay: Toxicity in Beagle dog assessed as drug tolerability at 0.63 to 20 mg/kg, po qd for 1 day; type: organism-based, Canis lupus familiaris; details: in vivo, 24 h
[32] = Cmax in female Beagle dog at 70 mg/kg, po measured after 1 month repeated dosing by LC-MS/MS analysis; details: in vivo
Mus musculus = assay: Systemic clearance in Swiss mouse at 2.5 mg/kg, iv administered as bolus dose by LC-MS/MS analysis relative to liver blood flow; type: ADME, organism-based; details: in vivo
[33] = Oral bioavailability in Swiss mouse at 10 mg/kg administered as bolus dose by LC-MS/MS analysis; type: ADME, organism-based; details: in vivo
Homo sapiens = species on record: Homo sapiens; assay: Selectivity for BACE1 (unknown origin) over BACE2 (unknown origin)
Cytochrome P450 1A2 = Cytochrome P450 1A2 (Homo sapiens, UniProt P05177); assay: Reversible inhibition of recombinant human CYP1A2 by fluorescence-based assay; type: ADME
Chain of Cytochrome P450 1A2 (P05177 whole entry): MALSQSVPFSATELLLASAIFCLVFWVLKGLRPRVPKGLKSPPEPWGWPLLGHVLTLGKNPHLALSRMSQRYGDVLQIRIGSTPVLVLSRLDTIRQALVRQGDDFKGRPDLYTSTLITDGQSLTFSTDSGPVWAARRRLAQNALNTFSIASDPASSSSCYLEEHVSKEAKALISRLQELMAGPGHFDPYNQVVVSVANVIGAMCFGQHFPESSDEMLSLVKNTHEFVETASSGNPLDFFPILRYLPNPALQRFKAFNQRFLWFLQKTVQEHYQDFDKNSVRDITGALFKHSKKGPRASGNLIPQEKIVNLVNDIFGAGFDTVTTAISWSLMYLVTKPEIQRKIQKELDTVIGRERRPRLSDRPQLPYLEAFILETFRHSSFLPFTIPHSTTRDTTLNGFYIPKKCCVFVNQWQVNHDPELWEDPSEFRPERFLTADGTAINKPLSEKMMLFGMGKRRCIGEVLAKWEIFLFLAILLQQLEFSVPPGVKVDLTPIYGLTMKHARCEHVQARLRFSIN

[34] = Tmax in Sprague-Dawley rat at 10 mg/kg, po administered as bolus dose by LC-MS/MS analysis; type: ADME, organism-based; details: in vivo
[35] = Fraction unbound in mouse plasma at 5 uM after 4.5 hrs by HPLC-MS/MS method based rapid equilibrium dialysis; type: ADME, cell-free

Chain of Cytochrome P450 2C19 (P33261 whole entry): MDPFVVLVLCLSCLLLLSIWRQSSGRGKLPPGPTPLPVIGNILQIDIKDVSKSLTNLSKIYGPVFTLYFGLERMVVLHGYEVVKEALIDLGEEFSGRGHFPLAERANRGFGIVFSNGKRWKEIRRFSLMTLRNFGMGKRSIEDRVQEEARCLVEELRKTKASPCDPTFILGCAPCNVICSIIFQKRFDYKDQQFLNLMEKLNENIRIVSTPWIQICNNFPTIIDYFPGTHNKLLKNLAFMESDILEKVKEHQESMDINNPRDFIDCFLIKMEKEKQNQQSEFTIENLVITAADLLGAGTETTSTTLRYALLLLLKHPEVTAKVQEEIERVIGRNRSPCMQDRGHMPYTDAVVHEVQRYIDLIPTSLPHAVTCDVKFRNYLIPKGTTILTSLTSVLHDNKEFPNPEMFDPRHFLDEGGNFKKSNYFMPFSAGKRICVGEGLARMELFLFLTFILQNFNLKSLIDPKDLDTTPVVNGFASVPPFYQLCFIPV

Which IC50 (Cytochrome P450 2C19) does the source give for C[C@]1(c2cc(NC(=O)c3ccc(C#N)cn3)ccc2F)N=C(N)CO[C@H]1C(F)(F)F here?
The IC50 was greater than 30 µM.

What about the bioavailability [1] of the same compound?
The bioavailability was 71%.

And the Activity (TK6)?
Its Activity is “Non-Toxic”.

And the Vd [2]?
The Vd was 11 L/kg.

And the NOAEL at 1 month [3]?
The NOAEL at 1 month was 70 mg/kg/day.

And the CL (Canis familiaris [4])?
The CL was 25%.

And the Tmax [5]?
The Tmax was 1 h.

What about the Kp [6] of the same compound?
Its Kp is 169.

And the Activity (Canis familiaris [7])?
Its Activity is “Non-Toxic”.

What about the Activity (Canis familiaris [8]) of the same compound?
Its Activity is “Active”.

And the Activity (Salmonella typhimurium [9])?
Its Activity is “Non-Toxic”.

And the clearance [10]?
Its clearance is 47 mL/min/kg.

What about the AUC at 24 h [11] of the same compound?
The AUC at 24 h was 26300 ng·h/mL.

What about the AUC(0-inf) [12] of the same compound?
The AUC(0-inf) was 1330 ng·h/mL.

And the IC50 (Beta-secretase 1)?
Its IC50 is 0.0222 µM.

And the Cmax [13]?
The Cmax was 1090 nM.

What about the MTC (HepG2) of the same compound?
The MTC was 31.5 µM.

And the inhibition [14]?
Its inhibition is 91%.

And the “fold change (FC)” value (THP-1)?
The value was 2.

And the Activity (Salmonella typhimurium [15])?
Its Activity is “Non-Toxic”.

And the Cmax [16]?
Its Cmax is 160 nM.

What about the half-life [17] of the same compound?
The half-life was 3.9 h.

And the Activity (Rattus norvegicus [18])?
Its Activity is “Toxic”.

And the AUC(0-inf) [19]?
Its AUC(0-inf) is 1220 ng·h/mL.

What about the metabolised at 0.25 h, 1 µM [20] of the same compound?
The metabolised at 0.25 h, 1 µM was 13%.

And the Activity (Rattus norvegicus [21])?
Its Activity is “Non-Toxic”.

What about the AUC at 24 h [22] of the same compound?
The AUC at 24 h was 23100 ng·h/mL.

And the Activity (Rattus norvegicus [23])?
Its Activity is “Non-Toxic”.

What about the AUC(0-inf) [24] of the same compound?
The AUC(0-inf) was 15400 ng·h/mL.

And the fraction unbound at 4.5 h, 5 µM [25]?
Its fraction unbound at 4.5 h, 5 µM is 0.36.

What about the Activity (Canis familiaris [26]) of the same compound?
The Activity was “Toxic”.

What about the AUC at 24 h [27] of the same compound?
Its AUC at 24 h is 13700 ng·h/mL.

What about the Vdss (Canis familiaris [28]) of the same compound?
The Vdss was 7.6 L/kg.

What about the Activity (Canis familiaris [29]) of the same compound?
Its Activity is “Toxic”.

And the Activity (Canis familiaris [30])?
Its Activity is “Toxic”.

And the Activity (Canis familiaris [31])?
The Activity was “Non-Toxic”.

What about the Cmax at 1 month [32] of the same compound?
Its Cmax at 1 month is 2080 ng/mL.

And the CL (Mus musculus)?
Its CL is 50%.

What about the bioavailability [33] of the same compound?
Its bioavailability is 45%.

What about the Selectivity ratio (Homo sapiens) of the same compound?
Its Selectivity ratio is 10.

And the IC50 (Cytochrome P450 1A2)?
Its IC50 is greater than 30 µM.

What about the Tmax [34] of the same compound?
Its Tmax is 2 h.

What about the fraction unbound at 4.5 h, 5 µM [35] of the same compound?
Its fraction unbound at 4.5 h, 5 µM is 0.23.
